One assay deals with T1, human TRPA1 (Homo sapiens, UniProt O75762).
T1 construct: expressed in transfected cells; host or cells: CHO cells (G-418 selection)
Briefly: 45Calcium uptake assay: inhibition of AITC induced cellular uptake of radioactive calcium, human TRPA1 expressing CHO cells. The format is cell-based. The following applies: AITC 30 μM. The gist of the method: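 CHO cells expressing TRPA1 were preincubated 10 min with compound (0.5% DMSO final), then given AITC (30 μM human, 10 μM rat) plus 5 μCi/ml 45Ca2+ for 3 min. Lysate radioactivity measured by scintillation; IC50 obtained by nonlinear regression of % maximal response without antagonist.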

The target of another assay is T2, rat TRPA1 (Rattus norvegicus, UniProt Q6RI86).
T2 construct: expressed in transfected cells; host or cells: CHO cells (Zeocin selection)
T2 sequence (Q6RI86 whole entry): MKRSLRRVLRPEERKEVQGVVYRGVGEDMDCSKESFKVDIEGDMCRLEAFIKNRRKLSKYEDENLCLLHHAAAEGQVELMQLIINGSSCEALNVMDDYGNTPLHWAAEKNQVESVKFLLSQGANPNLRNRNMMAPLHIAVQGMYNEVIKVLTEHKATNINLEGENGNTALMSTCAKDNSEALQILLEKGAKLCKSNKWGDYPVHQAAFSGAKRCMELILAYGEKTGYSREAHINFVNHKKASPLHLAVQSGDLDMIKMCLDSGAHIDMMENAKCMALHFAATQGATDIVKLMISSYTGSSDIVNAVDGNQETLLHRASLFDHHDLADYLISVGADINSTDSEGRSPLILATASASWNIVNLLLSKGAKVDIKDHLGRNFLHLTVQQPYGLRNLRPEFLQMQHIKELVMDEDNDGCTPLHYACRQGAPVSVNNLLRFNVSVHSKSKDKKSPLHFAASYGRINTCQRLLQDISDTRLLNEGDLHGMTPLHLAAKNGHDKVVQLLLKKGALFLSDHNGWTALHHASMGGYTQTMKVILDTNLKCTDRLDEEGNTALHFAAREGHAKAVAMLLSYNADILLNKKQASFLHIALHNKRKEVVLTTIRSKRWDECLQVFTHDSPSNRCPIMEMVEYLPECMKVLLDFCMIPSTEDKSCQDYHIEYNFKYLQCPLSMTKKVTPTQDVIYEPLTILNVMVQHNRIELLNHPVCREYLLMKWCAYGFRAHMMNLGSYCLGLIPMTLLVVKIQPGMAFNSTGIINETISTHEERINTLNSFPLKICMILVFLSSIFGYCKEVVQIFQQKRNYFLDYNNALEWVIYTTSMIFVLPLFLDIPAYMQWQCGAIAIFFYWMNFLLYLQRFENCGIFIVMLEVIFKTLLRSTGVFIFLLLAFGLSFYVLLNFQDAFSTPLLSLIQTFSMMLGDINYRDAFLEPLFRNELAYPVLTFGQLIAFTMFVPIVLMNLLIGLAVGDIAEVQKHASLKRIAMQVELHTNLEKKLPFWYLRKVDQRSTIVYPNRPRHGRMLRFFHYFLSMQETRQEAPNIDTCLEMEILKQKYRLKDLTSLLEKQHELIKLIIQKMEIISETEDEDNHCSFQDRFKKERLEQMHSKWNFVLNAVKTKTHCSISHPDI
Description: 45Calcium uptake assay: inhibition of AITC induced cellular uptake of radioactive calcium, rat TRPA1 expressing CHO cells. The following applies: AITC 10 μM; for inhibition at 10 µM: 10.0 μM compound, read-out: rat TRPA1 Percentage inhibition at 10.0 μM; for inhibition at 1 µM: read-out: rat TRPA1 Percentage inhibition; for IC50: class symbols. The format is cell-based. The gist of the method: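 CHO cells expressing rat or human TRPA1 were pre-treated with compound for 10 min, then given AITC (30 μM human, 10 μM rat) plus 5 μCi/ml 45Ca2+ for 3 min; final DMSO 0.5%. Lysate radioactivity was counted by scintillation. IC50 came from nonlinear regression of concentration-response curves as % of maximal response.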

In patent publication US20120178766A1, “FUROPYRIMIDINEDIONE DERIVATIVES AS TRPAI MODULATORS” (priority 2009, published 2012) one finds IC50 and inhibition data, which are given here for 21 molecules.

T1 sequence (O75762 whole entry): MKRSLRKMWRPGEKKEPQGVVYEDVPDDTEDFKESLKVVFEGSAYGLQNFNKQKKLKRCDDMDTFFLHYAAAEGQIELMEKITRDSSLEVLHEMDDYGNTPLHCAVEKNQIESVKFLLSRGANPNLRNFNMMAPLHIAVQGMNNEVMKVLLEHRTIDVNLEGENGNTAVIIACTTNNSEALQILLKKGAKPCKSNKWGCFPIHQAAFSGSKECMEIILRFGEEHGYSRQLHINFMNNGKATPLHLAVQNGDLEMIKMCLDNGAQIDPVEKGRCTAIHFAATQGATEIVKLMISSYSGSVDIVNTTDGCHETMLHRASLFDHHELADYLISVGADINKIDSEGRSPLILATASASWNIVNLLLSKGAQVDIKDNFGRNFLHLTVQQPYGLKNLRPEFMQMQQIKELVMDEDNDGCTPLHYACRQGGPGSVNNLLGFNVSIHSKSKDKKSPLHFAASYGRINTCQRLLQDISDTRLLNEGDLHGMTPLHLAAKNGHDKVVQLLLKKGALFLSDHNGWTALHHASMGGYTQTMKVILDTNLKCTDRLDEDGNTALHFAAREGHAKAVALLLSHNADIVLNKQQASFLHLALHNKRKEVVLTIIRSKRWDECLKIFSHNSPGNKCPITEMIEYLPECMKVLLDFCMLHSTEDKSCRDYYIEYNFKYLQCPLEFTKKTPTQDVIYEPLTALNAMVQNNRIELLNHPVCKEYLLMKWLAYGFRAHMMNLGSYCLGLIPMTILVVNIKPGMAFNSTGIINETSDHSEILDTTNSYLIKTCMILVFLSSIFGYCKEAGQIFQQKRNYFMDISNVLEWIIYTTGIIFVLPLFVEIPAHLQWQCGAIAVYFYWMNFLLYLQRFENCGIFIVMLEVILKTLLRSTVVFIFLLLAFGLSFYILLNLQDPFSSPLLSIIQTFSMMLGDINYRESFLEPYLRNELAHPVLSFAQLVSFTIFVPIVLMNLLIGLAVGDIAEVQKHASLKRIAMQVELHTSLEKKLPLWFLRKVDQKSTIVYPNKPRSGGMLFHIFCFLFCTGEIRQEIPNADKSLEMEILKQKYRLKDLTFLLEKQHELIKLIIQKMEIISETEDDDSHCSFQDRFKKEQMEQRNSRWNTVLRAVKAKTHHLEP

For orientation: IC50 means the concentration at which inhibition is half-maximal. The inhibition is how much of the control response was suppressed. For the molecule `Cc1oc2c(c1CC(=O)Nc1nc(-c3cc(C(F)(F)F)ccc3F)cs1)c(=O)n(C)c(=O)n2C` [Example 63, N1-{4-[2-Fluoro-5-(trifluoromethyl)phenyl]-1,3-thiazol-2-yl}-2-(1,3,6-trimethyl-2,4-dioxo-1,2,3,4-tetrahydrofuro[2,3-d]pyrimidin-5-yl)acetamide], the IC50 on human TRPA1 (class symbols) fell in the range of 50 to 100 nM. At rat TRPA1, the inhibition at 10 µM worked out at 99.8% and the inhibition at 1 µM came to 97.6%.

Take `Cc1oc2c(c1CC(=O)Nc1nc(-c3ccc(Cl)c(C(F)(F)F)c3)cs1)c(=O)n(C)c(=O)n2C` [Example 64, N1-{4-[4-Chloro-3-(trifluoromethyl)phenyl]-1,3-thiazol-2-yl}-2-(1,3,6-trimethyl-2,4-dioxo-1,2,3,4-tetrahydrofuro[2,3-d]pyrimidin-5-yl)acetamide]: the IC50 at human TRPA1 (class symbols) and at rat TRPA1 was less than 50 nM throughout.

As for `Cc1oc2c(c1CC(=O)Nc1nc(-c3cc(Cl)cc(C(F)(F)F)c3)cs1)c(=O)n(C)c(=O)n2C` [Example 65, N1-{4-[3-Chloro-5-(trifluoromethyl)phenyl]-1,3-thiazol-2-yl}-2-(1,3,6-trimethyl-2,4-dioxo-1,2,3,4-tetrahydrofuro[2,3-d]pyrimidin-5-yl)acetamide], on human TRPA1 (class symbols), the IC50 was less than 50 nM. In addition, at rat TRPA1, the inhibition at 10 µM worked out at 99.8%, the inhibition at 1 µM was 99.8% and the IC50 was in the range of 50 to 100 nM.

As for `Cc1oc2c(c1CC(=O)Nc1nc(-c3ccc(C(F)(F)F)c(Cl)c3)cs1)c(=O)n(C)c(=O)n2C` [Example 66, N1-{4-[3-Chloro-4-(trifluoromethyl)phenyl]-1,3-thiazol-2-yl}-2-(1,3,6-trimethyl-2,4-dioxo-1,2,3,4-tetrahydrofuro[2,3-d]pyrimidin-5-yl)acetamide], the inhibition at 1 µM on human TRPA1 (1.0 μM compound, read-out: human TRPA1 Percentage inhibition at 1.0 μM) came to 99.4%; at rat TRPA1 it was 99.8%. For the same molecule, the inhibition at 10 µM was found to be 99.8% on human TRPA1 (10.0 μM compound, read-out: human TRPA1 Percentage inhibition at 10.0 μM) and 98.5% on rat TRPA1.

In the case of `Cc1oc2c(c1CC(=O)Nc1nc(-c3ccc(OC(F)(F)F)c(F)c3)cs1)c(=O)n(C)c(=O)n2C` [Example 67, N1-{4-[3-Fluoro-4-(trifluoromethoxy)phenyl]-1,3-thiazol-2-yl}-2-(1,3,6-trimethyl-2,4-dioxo-1,2,3,4-tetrahydrofuro[2,3-d]pyrimidin-5-yl)acetamide], the IC50 on human TRPA1 (class symbols) and at rat TRPA1 was less than 50 nM throughout.

With `Cc1oc2c(c1CC(=O)Nc1nc(-c3ccc(F)c(OC(F)(F)F)c3)cs1)c(=O)n(C)c(=O)n2C` [Example 68, N1-{4-[4-Fluoro-3-(trifluoromethoxy)phenyl]-1,3-thiazol-2-yl}-2-(1,3,6-trimethyl-2,4-dioxo-1,2,3,4-tetrahydrofuro[2,3-d]pyrimidin-5-yl)acetamide], the IC50 on human TRPA1 (class symbols) and at rat TRPA1 was less than 50 nM each time.

For `Cc1oc2c(c1CC(=O)Nc1nc(-c3ccc(Cl)c(OC(F)(F)F)c3)cs1)c(=O)n(C)c(=O)n2C` [Example 69, N1-{4-[4-Chloro-3-(trifluoromethoxy)phenyl]-1,3-thiazol-2-yl}-2-(1,3,6-trimethyl-2,4-dioxo-1,2,3,4-tetrahydrofuro[2,3-d]pyrimidin-5-yl)acetamide], the IC50 at human TRPA1 (class symbols) and on rat TRPA1 was less than 50 nM each time.

Regarding `Cc1oc2c(c1CC(=O)Nc1nc(-c3ccc(OC(F)(F)F)c(Cl)c3)cs1)c(=O)n(C)c(=O)n2C` [Example 70, N1-{4-[3-Chloro-4-(trifluoromethoxy)phenyl]-1,3-thiazol-2-yl}-2-(1,3,6-trimethyl-2,4-dioxo-1,2,3,4-tetrahydrofuro[2,3-d]pyrimidin-5-yl)acetamide], the IC50 at human TRPA1 (class symbols) and at rat TRPA1 was less than 50 nM throughout.

As for `Cc1oc2c(c1CC(=O)Nc1nc(-c3cc(Cl)cc(OC(F)(F)F)c3)cs1)c(=O)n(C)c(=O)n2C` [Example 71], the IC50 at human TRPA1 (class symbols) was less than 50 nM; at rat TRPA1, 50 to 100 nM.

On to `Cc1oc2c(c1CC(=O)Nc1nc(-c3ccc(OC(F)F)c(Cl)c3)cs1)c(=O)n(C)c(=O)n2C` [Example 72, N1-{4-[3-Chloro-4-(difluoromethoxy)phenyl]-1,3-thiazol-2-yl}-2-(1,3,6-trimethyl-2,4-dioxo-1,2,3,4-tetrahydrofuro[2,3-d]pyrimidin-5-yl)acetamide], for which the IC50 at human TRPA1 (class symbols) was less than 50 nM. Moreover, on rat TRPA1, the inhibition at 10 µM came to 100%, the inhibition at 1 µM is 100% and the IC50 is more than 100 nM.

For `Cc1oc2c(c1CC(=O)Nc1nc(-c3ccc(OCC(F)(F)F)c(F)c3)cs1)c(=O)n(C)c(=O)n2C` [Example 73, N1-{4-[3-Fluoro-4-(2,2,2-trifluoroethoxy)phenyl]-1,3-thiazol-2-yl}-2-(1,3,6-trimethyl-2,4-dioxo-1,2,3,4-tetrahydrofuro[2,3-d]pyrimidin-5-yl)acetamide], the IC50 on human TRPA1 (class symbols) is less than 50 nM. On rat TRPA1, the inhibition at 10 µM was 100% and the inhibition at 1 µM is 100%.

As for `Cc1oc2c(c1CC(=O)Nc1nc(-c3ccc(OCC(F)(F)F)c(Cl)c3)cs1)c(=O)n(C)c(=O)n2C` [Example 74, N1-{4-[3-Chloro-4-(2,2,2-trifluoroethoxy)phenyl]-1,3-thiazol-2-yl}-2-(1,3,6-trimethyl-2,4-dioxo-1,2,3,4-tetrahydrofuro[2,3-d]pyrimidin-5-yl)acetamide], the IC50 at human TRPA1 (class symbols) was less than 50 nM. In addition, on rat TRPA1, the inhibition at 10 µM amounted to 100%, the inhibition at 1 µM is 100% and the IC50 was less than 50 nM.

As to `Cc1oc2c(c1CC(=O)Nc1nc(-c3cc(F)c(F)cc3F)cs1)c(=O)n(C)c(=O)n2C` [Example 75, N1-[4-(2,4,5-Trifluorophenyl)-1,3-thiazol-2-yl]-2-(1,3,6-trimethyl-2,4-dioxo-1,2,3,4-tetrahydrofuro[2,3-d]pyrimidin-5-yl)acetamide], the IC50 was 18.5 nM on human TRPA1 (numeric values) and 50 to 100 nM on rat TRPA1.

On to `Cc1oc2c(c1CC(=O)Nc1nc(-c3cc(F)c(F)c(F)c3)cs1)c(=O)n(C)c(=O)n2C` [Example 76, N1-[4-(3,4,5-Trifluorophenyl)-1,3-thiazol-2-yl]-2-(1,3,6-trimethyl-2,4-dioxo-1,2,3,4-tetrahydrofuro[2,3-d]pyrimidin-5-yl)acetamide], for which the IC50 on human TRPA1 (numeric values) was 7.65 nM; on rat TRPA1, 50 to 100 nM.

With `Cc1oc2c(c1CC(=O)Nc1nc(-c3ccc(F)c(F)c3F)cs1)c(=O)n(C)c(=O)n2C` [Example 77, N1-[4-(2,3,4-Trifluorophenyl)-1,3-thiazol-2-yl]-2-(1,3,6-trimethyl-2,4-dioxo-1,2,3,4-tetrahydrofuro[2,3-d]pyrimidin-5-yl)acetamide], at human TRPA1 (numeric values), the IC50 was 19.2 nM. Also, at rat TRPA1, the inhibition at 10 µM was 98.5% and the inhibition at 1 µM came to 99.2%.

On to `Cc1oc2c(c1CC(=O)Nc1nc(-c3ccc(F)c(Cl)c3F)cs1)c(=O)n(C)c(=O)n2C` [Example 78, N1-[4-(3-Chloro-2,4-difluorophenyl)-1,3-thiazol-2-yl]-2-(1,3,6-trimethyl-2,4-dioxo-1,2,3,4-tetrahydrofuro[2,3-d]pyrimidin-5-yl)acetamide], for which the IC50 at human TRPA1 (numeric values) came to 34.5 nM. In addition, at rat TRPA1, the inhibition at 10 µM is 94.8% and the inhibition at 1 µM came out at 94.5%.

As for `Cc1oc2c(c1CC(=O)Nc1nc(-c3cc(F)c(OCC(C)(C)C)c(F)c3)cs1)c(=O)n(C)c(=O)n2C` [Example 80], the IC50 on human TRPA1 (numeric values) was 3.63 nM; on rat TRPA1, less than 50 nM.

Turning to `Cc1oc2c(c1CC(=O)Nc1nc(-c3cc(F)c(OCC(C)C)c(F)c3)cs1)c(=O)n(C)c(=O)n2C` [Example 81, N1-[4-(3,5-Difluoro-4-isobutoxyphenyl)-1,3-thiazol-2-yl]-2-(1,3,6-trimethyl-2,4-dioxo-1,2,3,4-tetrahydrofuro[2,3-d]pyrimidin-5-yl)acetamide], at human TRPA1 (numeric values), the concentration for half-maximal inhibition (IC50) was 4.63 nM. At rat TRPA1, the inhibition at 10 µM amounted to 99.2%, the inhibition at 1 µM worked out at 100% and the IC50 lay in the range of 50 to 100 nM.

For `Cc1oc2c(c1CC(=O)Nc1nc(-c3cc(Cl)c(OCC(C)C)c(Cl)c3)cs1)c(=O)n(C)c(=O)n2C` [Example 82, N1-[4-(3,5-Dichloro-4-isobutoxyphenyl)-1,3-thiazol-2-yl]-2-(1,3,6-trimethyl-2,4-dioxo-1,2,3,4-tetrahydrofuro[2,3-d]pyrimidin-5-yl)acetamide], the IC50 at human TRPA1 (numeric values) is 3.34 nM. For the same molecule, on rat TRPA1, the inhibition at 10 µM was 100%, the inhibition at 1 µM amounted to 100% and the IC50 was less than 50 nM.

In the case of `Cc1oc2c(c1CC(=O)Nc1nc(-c3ccc(F)c(C(F)(F)F)c3F)cs1)c(=O)n(C)c(=O)n2C` [Example 83, N1-{4-[2,4-Difluoro-3-(trifluoromethyl)phenyl]-1,3-thiazol-2-yl}-2-(1,3,6-trimethyl-2,4-dioxo-1,2,3,4-tetrahydrofuro[2,3-d]pyrimidin-5-yl)acetamide], the IC50 was 4.52 nM on human TRPA1 (numeric values) and less than 50 nM at rat TRPA1.

Regarding `Cc1oc2c(c1CC(=O)Nc1nc(-c3cc(F)c(C(F)(F)F)c(F)c3)cs1)c(=O)n(C)c(=O)n2C` [Example 84, N1-{4-[3,5-Difluoro-4-(trifluoromethyl)phenyl]-1,3-thiazol-2-yl}-2-(1,3,6-trimethyl-2,4-dioxo-1,2,3,4-tetrahydrofuro[2,3-d]pyrimidin-5-yl)acetamide], the IC50 was 4.16 nM at human TRPA1 (numeric values) and less than 50 nM at rat TRPA1.
